Assay results from ChEMBL document CHEMBL4257493, “Discovery of 7-hydroxyaporphines as conformationally restricted ligands for beta-1 and beta-2 adrenergic receptors” (Medchemcomm, 2018).

Biological target: Beta-2 adrenergic receptor (Homo sapiens, UniProt P07550)
Test: Displacement of [3H]-CGP-12177 from human beta2-adrenergic receptor

Chain of Beta-2 adrenergic receptor (P07550 whole entry): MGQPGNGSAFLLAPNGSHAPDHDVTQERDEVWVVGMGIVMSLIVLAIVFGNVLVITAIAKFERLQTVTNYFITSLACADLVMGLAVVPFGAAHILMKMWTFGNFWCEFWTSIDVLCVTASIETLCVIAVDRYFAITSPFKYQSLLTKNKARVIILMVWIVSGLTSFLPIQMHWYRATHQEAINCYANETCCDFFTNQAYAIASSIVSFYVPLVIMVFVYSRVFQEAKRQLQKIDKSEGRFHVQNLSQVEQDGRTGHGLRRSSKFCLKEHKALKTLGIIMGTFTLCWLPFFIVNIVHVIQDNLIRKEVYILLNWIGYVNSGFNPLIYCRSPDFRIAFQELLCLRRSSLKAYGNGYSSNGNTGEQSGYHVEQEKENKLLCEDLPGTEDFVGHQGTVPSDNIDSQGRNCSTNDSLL

Row | SMILES | IC50 [µM]
1 | COc1cc2c(cc1OC)[C@H]([C@H](O)c1ccccc1)NCC2 | > 10
2 | COc1ccc(CCNC[C@H](O)c2ccccc2)cc1OC | 8.4
3 | COc1cc2c3c(c1OC)-c1ccccc1[C@@H](O)[C@H]3NCC2 | 0.21
